Measured values from patent US5403930A, “Substituted salicylic acids” (Pharmacia AB, priority 1991, dated 1995).
Entries after “also recorded” stand apart in the source; their conditions may differ.

Key:
human lymphocytes = assay: Concanavalin A-induced proliferation of human lymphocytes ([3H]-thymidine); assay type: cell-based; details: Lymphocyte, 72 h, 250 μM test compound, 2.5 μg/ml Concanavalin A, 3 days, 2 experiments
Description: (§1) Effect of Compounds on Human Lymphocyte Proliferation Peripheral blood mononuclear cells were isolated from heparinized blood from healthy volunteers by density gradient centrifugation as described by Bain and Pshyk, Transplantation Proc, 4:163-164 (1972). Cell proliferation induced by Concanavalin A was measured in a standard assay such as described in Soderstrom et at., Scand J Immunol, 32:503-516 (1990) using 5% fetal bovine serum in the culture medium. The reaction mixture (final concentrations) consisted of 200 000 cells stimulated with 2.5 μg/ml Concanavalin A and test compounds in a total volume of 0.2 ml. The test compounds were added at the start of the assay, which was run for a total of three days with addition ofradioactive [3H]-thymidine during the last 18 h. Cell bound radioactivity was measured in a liquid scintillation counter.

Human Granulocytes [1] = assay: FMLP-induced superoxide production of human granulocytes, 10 μM test compound; assay type: cell-based; details: 10 nM FMLP, 400 000 granulocytes
Description: Effects of Test Compounds on Superoxide Production of Human Granulocytes
(§2) Granulocytes were isolated from the heparinized blood from healthy volunteers. The superoxide assay was essentially that of J. M. McCord and I Fridovich (J. Biol. Chem. 244:6049-6055 (1969)) as modified by G Carlin et al. (Pharmacol. Toxicol 65:121-127 (1989)). The reaction mixture contained (final concentrations) 125 μM cytochrome C in Dulbeccos phosphate buffer with Mg and Ca, 10 μM test compound and 400 000 granulocytes treated with 5 μg/ml of cytochalasin B immediately before the experiment. This reaction mixture was preincubated at 37° C. for 10 minutes, whereafter 10 nM N-formyl-L-methionyl-L-leucyl-L-phenylalanine was added to start the reaction, making the final volume 1 ml. After 10 minutes the tubes were centrifuged and the absorbance of the supernatant at 540 and 550 nm was measured. The superoxide production was expressed as the difference in absorbance at these wavelengths.

Human Granulocytes [2] = assay: FMLP-induced superoxide production of human granulocytes, 100 μM test compound; assay type: cell-based; details: 100 nM FMLP, 600 000 granulocytes
Description: Effects of Test Compounds on Superoxide Production of Human Granulocytes at 100 um Concentration
as §2, with “et at.” for “et al.”, “Ca, 100” for “Ca, 10”, “and 600” for “and 400”, “whereafter 100” for “whereafter 10”

[3] = test system: human lymphocytes and granulocytes; assay: Overall activity judged from the results of Examples 40 to 42
Description: as §1, with “Peripheral” for “Effect of Compounds on Human Lymphocyte Proliferation Peripheral”
as §2
as §2, with “et at.” for “et al.”, “Ca, 100” for “Ca, 10”, “and 600” for “and 400”, “whereafter 100” for “whereafter 10”

T-lymphocytes = details: cited from earlier work
[4] = rheumatoid arthritis, ulcerative colitis, ankylosing spondylitis, reactive arthritis, psoriasis; cited from earlier work

Structure (SMILES)	inhibition at 250 µM (human lymphocytes)	inhibition at 10 µM (Human Granulocytes [1])	inhibition at 100 µM (Human Granulocytes [2])	Overall activity ranking [3]	Inhibition of activation and proliferation of T-lymphocytes (T-lymphocytes)	Clinical effectiveness in autoimmune diseases [4]
Cc1cccnc1NS(=O)(=O)c1ccc(C#Cc2ccc(O)c(C(=O)O)c2)cc1 [Example 2, 2-Hydroxy-5-[[4-[(3-methyl-2-pyridinylamino)-sulfonyl]phenyl]ethynyl]benzoic acid]	99.5%	86%	94.1%	most active; also recorded: considered to be the best one		
O=C(O)c1cc(C=Cc2ccc(S(=O)(=O)Nc3ncccc3OCc3ccccc3)cc2)ccc1O [Example 16, 2-Hydroxy-5-[2-[4-[[3-(phenylmethoxy)-2-pyridinylamino]sulfonyl]phenyl]ethenyl]benzoic acid]	95.4%	94.6%		most active		
O=C(O)c1cc(C=Cc2ccc(S(=O)(=O)Nc3ccc(Cl)cn3)cc2)ccc1O [Example 17, 5-[2-[4-[(5-Chloro-2-pyridinylamino)sulfonyl]phenyl]ethenyl]-2hydroxybenzoic acid]	99.5%	71.9%		most active		
O=C(O)c1cc(C=Cc2ccc(S(=O)(=O)Nc3nc4ccc(F)cc4s3)cc2)ccc1O [Example 21, 2-Hydroxy-5-[2-[4-[[6-fluoro-(2-benzo[d]thiazolyl)]aminosulfonyl]phenyl]ethenyl]benzoic acid]	99.8%	93%		most active		
CN(c1ccccn1)S(=O)(=O)c1ccc(C=Cc2ccc(O)c(C(=O)O)c2)cc1 [Example 22, 2-Hydroxy-5-[2-[4-[N-methyl-(2-pyridinyl)aminosulfonyl]phenyl]ethenyl]benzoic acid]	99.8%	85.5%		most active		
O=C(C=Cc1ccc(S(=O)(=O)Nc2ccccn2)cc1)c1ccc(O)c(C(=O)O)c1 [Example 29, 2-Hydroxy-5-[1-oxo-3-[4-[(2-pyridinylamino)sulfonyl]phenyl]-2-propenyl]benzoic acid]	66%	33.4%				
Cc1ccnc(NS(=O)(=O)c2ccc(C#Cc3ccc(O)c(C(=O)O)c3)cc2)c1 [Example 33, 2-Hydroxy-5-[[4-[(4-methyl-2-pyridinyl)amino-sulfonyl]phenyl]ethynyl]benzoic acid]			92.1%	most active		
Cc1cccnc1NS(=O)(=O)c1ccc(C#Cc2cc(C(=O)O)c(O)cc2F)cc1 [Example 37, 4-Fluoro-2-hydroxy-5-[[4-[(3-methyl-2-pyridinylamino)sulfonyl]phenyl]ethynyl]benzoic acid]	100%		97.5%	most active		
Cc1cccnc1NS(=O)(=O)c1ccc(C=Cc2cc(C(=O)O)c(O)cc2F)cc1 [Example 38, 4-Fluoro-2-hydroxy-5-[2-[4-[(3-methyl-2-pyridinylamino)sulfonyl]phenyl]ethenyl]benzoic acid]	100%		98.7%	most active		
Cc1cccnc1NS(=O)(=O)c1cccc(C#Cc2ccc(O)c(C(=O)O)c2)c1 [Example 39, 2-Hydroxy-5-[[3-[(3-methyl-2-pyridinylamino)sulfonyl]phenyl]ethynyl]benzoicacid]	100%		93.5%	most active		
O=C(O)c1cc(/N=N/c2ccc(S(=O)(=O)Nc3ccccn3)cc2)ccc1O [Sulfasalazine, reference compound]	53.7%	63.5%	65.4%		inhibits activation and proliferation of T-lymphocytes	clinically effective
